A short description of the assay: NO release from NO-releasing co-condensed silica, Nitric Oxide Analyzer, physiological condition. The assay is classed as physicochemical. Here is the method:
A variety of single and multi-donor co-condensed silica macromolecules were synthesized. […] FIGS. 8A and 8B illustrate the same release profiles with normalized maximum NO concentration. FIG. 8B illustrates the same release profiles, with normalized maximum NO concentration, as FIG. 8A, but is an expanded view of the release profiles. All release profiles were collected with a Nitric Oxide Analyzer under physiological condition at pH=7.4 and 37° C.
To make NO-releasing co-condensed silica with programmed release profile, the different silane diazeniumdiolate monomer solutions were mixed at the pre-set ratios. The mixture is then added into a flask with pre-cooled ethanol with nitrogen protection. The mixture is further cooled to −15° C. and pre-set amount of backbone silane (TEOS or TMOS) is added. When the mixture temperature equilibriums to −15° C., the ammonium hydroxide aqueous solution is added. The reaction is then warmed rapidly to 15° and stirred for additional 3 hours. The content is then filtered. The solid is washed with dry ethanol twice and then dried extensively.

The record followed here is patent US11124476B2, “Tunable nitric oxide-releasing macromolecules having multiple nitric oxide donor structures” (The University of North Carolina at Chapel Hill, priority 2011, dated 2021).

Turning to `CCCCCCCCCCCCNCCCCCCN(CCCCCCCCCCCC)/[N+]([O-])=N/O` [MAP3 diazeniumdiolate], the “duration of NO release” value is recorded as “only a few minutes”.
